# Data: patent US20050112128A1, “Inhibition of protein kinase c-mu (PKD) as a treatment for cardiac hypertrophy and heart failure” (Myogen, Inc. and Board of Regents, The University of Texas …, priority 2003, published 2005)
# Entries after “also recorded” stand apart in the source; their conditions may differ. Where no end group is shown, it is not given here.
# System: nuclear export of GFP-HDAC5 in NRVMs
# Assay: Quantitative HDAC5 nuclear export assay in NRVMs (Cellomics High Content Imaging System)
# Format: cell-based, rat
# Settings: NRVMs infected with Ad-GFP-HDAC5; PE 0.1 to 20 μM, 2 hrs; ET-1 50 nM; FBS 10%
row,Compound,agonist-triggered nuclear export of HDAC5 in cardiomyocytes
1,"Endothelin-1 (CSCSSLMDKECVYFCHLDIIW; ends and bridges not checked; cysteine pairing not given here; UniProt P05305 53-73, looked up) [ET-1, hypertrophic agonist purchased from Sigma]",effectively promote nuclear export of HDAC5

# Same assay, conditions: NRVMs; PE 20 μM, 2 hrs; inhibitor pre-treatment 30 min; KN93, wortmannin, staurosporine 1 mM; U1026, HA1077, Y-27632, DAG Kinase inhibitor II, SB216763, Bis I 10 mM; rapamycin 30 ng/ml; Gö6983 10 μM
row,Compound,block of PE-induced nuclear export of HDAC5
1,O=c1c2ccccc2[nH]c(=S)n1CCN1CCC(=C(c2ccc(F)cc2)c2ccc(F)cc2)CC1 [DAGK inhibitor II],did not significantly affect PE-induced nuclear export of HDAC5
2,O=S(=O)(c1cccc2cnccc12)N1CCCNCC1 [HA1077],did not significantly affect PE-induced nuclear export of HDAC5
3,COc1ccc(S(=O)(=O)N(CCO)c2ccccc2CN(C)C/C=C/c2ccc(Cl)cc2)cc1 [KN93],did not significantly affect PE-induced nuclear export of HDAC5
4,Cn1cc(C2=C(c3ccc(Cl)cc3Cl)C(=O)NC2=O)c2ccccc21 [SB216763],did not significantly affect PE-induced nuclear export of HDAC5
5,N#CC(=C(/N)Sc1ccccc1N)/C(C#N)=C(/N)Sc1ccccc1N [U1026],did not significantly affect PE-induced nuclear export of HDAC5
6,C[C@@H](N)[C@H]1CC[C@H](C(=O)Nc2ccncc2)CC1 [Y-27632],did not significantly affect PE-induced nuclear export of HDAC5
7,CN[C@@H]1C[C@H]2O[C@@](C)([C@@H]1OC)n1c3ccccc3c3c4c(c5c6ccccc6n2c5c31)C(=O)NC4 [staurosporine],effective in blocking PE-dependent export of HDAC5; also recorded: effective in blocking HDAC5 nuclear export

# System: nuclear export of HDAC5 in COS cells
# Assay: GFP-HDAC5 nuclear export in transfected COS cells (fluorescence microscopy)
# Format: cell-based
# Settings: COS cells transfected with GFP-HDAC5; 60 min after addition of compounds
# Procedure: FIGS. 1A-D—PKC-dependent nuclear export of HDAC5. FIG. 1A. COS cells were cultured on 6-well dishes, transfected with a GFP-HDAC5 expression vector (1 μg) and stimulated with the indicated compounds, as described in Materials and Methods. Sixty minutes after addition of compounds, GFP-HDAC5 distribution was determined by fluorescence microscopy. […] FIG. 1B. COS cells were transfected with expression vectors encoding FLAG-tagged versions of either HDAC5 or an HDAC5 mutant harboring alanines in place of serines 259 and 498 (HDAC5 S259/498A) (1 μg each). Cells were stimulated with PMA for 60 min and HDAC5 distribution was determined by indirect immunofluorescence with anti-FLAG primary antibody and fluorecein-conjugated secondary antibody. HDAC5 259/498A is refractory to PMA stimulation. FIG. 1C. COS cells transfected with GFPHDAC5 encoding expression vector (1 μg) and stimulated with PMA for the indicated times. FIG. 1D. COS cells were transiently transfected with expression vectors encoding FLAG-tagged versions of HDAC5 or HDAC5 S259/498A (1 μg each). Cells were pretreated with the PKC inhibitor bisindolylmaleimide (Bis I; 10 μM) for 30 minutes and stimulated with PMA for 30 min, as indicated. Association of FLAG-HDAC5 with endogenous 14-3-3 was detected by sequential immunoprecipitation and immunoblotting.
# Cell culture and transfection assays. COS cells were maintained in DMEM with FBS (10%), L-glutamine (2 mM), and penicillin-streptomycin. Transfection of COS cells was performed with Fugene 6 (Roche Molecular Biochemicals) according to manufacturer's instructions. For HDAC localization experiments, cells were treated 16-24 hours after transfection with PMA (100 nM), ionomycin […], 8-Br-cAMP (1 mM), pCPT-GMP (1 mM), or anisomycin (1 mM). Where noted, specific protein kinase inhibitors were added 30 min prior to the addition of any chemical stimulus. GFP-HDAC5 was visualized with standard fluorescent microscopic techniques. For indirect immunofluorescence of FLAG-HDAC5, COS cells were seeded on glass coverslips, transfected, and treated as above. After specific treatment, cells were fixed with buffered formalin (10%) and stained in PBS containing BSA (3%) and Nonidet P-40 (0.1%). Flag M2 antibody (Sigma) was used at a concentration of 1:200. Secondary fluoresceine-conjugated antibody (Vector Laboratories) was also used at a concentration of 1:200. Staining of cardiomyocytes for sarcomeres and atrial natriuretic factor (ANF) was performed by indirect immunofluorescence detection as above with antibodies directed against sarcomeric α-actinin (Sigma) and ANF (Peninsula Laboratories), respectively.
row,Compound,stimulation of nuclear export of GFP-HDAC5
1,Nc1ncnc2c1nc(Br)n2[C@@H]1O[C@@H]2COP(=O)(O)O[C@H]2[C@H]1O [8-Br-cAMP],only ionomycin and PMA stimulated nuclear export
2,COc1ccc(C[C@H]2NC[C@H](O)[C@H]2OC(C)=O)cc1 [anisomycin],only ionomycin and PMA stimulated nuclear export
3,C[C@H](CCC(=O)O)C[C@H](C)C[C@H](C)C(=O)/C=C(\O)[C@H](C)C[C@H](C)C/C=C/[C@@H](C)[C@@H](O)[C@@H](C)[C@@H](O)C[C@@H]1CC[C@@](C)([C@H]2CC[C@@](C)([C@@H](C)O)O2)O1 [ionomycin],partial response; also recorded: stimulated nuclear export of GFP-HDAC5
4,Nc1nc2c(nc(Sc3ccc(Cl)cc3)n2[C@@H]2O[C@@H]3COP(=O)(O)O[C@H]3[C@H]2O)c(=O)[nH]1 [pCPT-GMP],only ionomycin and PMA stimulated nuclear export
